# According to US10815210B2, “Benzocyclobutane derivatives useful as dual SGLT1 / SGLT2 modulators” (Janssen Pharmaceutica NV, priority 2016, dated 2020):
# Experiments:
# human SGLT1 = biological target: T1, human SGLT1 (Homo sapiens, UniProt P13866); assay: SGLT1 assay: Na-dependent 14C-AMG uptake in CHO-K1 cells stably expressing human SGLT1; format: cell-based; conditions: for IC50: 500 μM AMG, 2 hours at 37° C.
# T1 construct: expressed in transfected cells; host or cells: CHO-K1
# T1 sequence (P13866 1-664): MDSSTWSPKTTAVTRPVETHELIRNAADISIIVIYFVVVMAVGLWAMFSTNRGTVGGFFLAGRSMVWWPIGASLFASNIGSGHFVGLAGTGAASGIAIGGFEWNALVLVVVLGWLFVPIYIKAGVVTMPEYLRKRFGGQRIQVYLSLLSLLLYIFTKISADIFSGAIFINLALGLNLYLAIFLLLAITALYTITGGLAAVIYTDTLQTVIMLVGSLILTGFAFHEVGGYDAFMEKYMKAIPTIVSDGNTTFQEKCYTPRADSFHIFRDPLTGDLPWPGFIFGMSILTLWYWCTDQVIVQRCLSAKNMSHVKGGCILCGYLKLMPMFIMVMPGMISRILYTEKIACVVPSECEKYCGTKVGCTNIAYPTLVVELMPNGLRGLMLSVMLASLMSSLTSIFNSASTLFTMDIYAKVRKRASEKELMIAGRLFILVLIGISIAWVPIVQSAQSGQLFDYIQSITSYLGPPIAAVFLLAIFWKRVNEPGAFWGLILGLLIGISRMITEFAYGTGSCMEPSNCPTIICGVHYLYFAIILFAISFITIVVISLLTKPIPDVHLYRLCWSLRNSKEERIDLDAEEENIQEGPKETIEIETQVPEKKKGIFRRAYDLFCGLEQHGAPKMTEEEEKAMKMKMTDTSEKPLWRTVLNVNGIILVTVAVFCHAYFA
# Method in brief: (§1)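 CHO-K1 cells stably expressing human SGLT1 or SGLT2, pretreated 24 h with 10 mM Na-butyrate, were exposed 10 min to compound (0.001-10 μM) in Na-containing HEPES/Tris buffer pH 7.4. Uptake of ^14C-AMG (500 μM final) ran 2 h at 37° C, then Na-dependent uptake was counted by scintillation.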
# human SGLT2 = biological target: T2, human SGLT2 (Homo sapiens, UniProt P31639); assay: SGLT2 assay: Na-dependent 14C-AMG uptake in CHO-K1 cells stably expressing human SGLT2; format: cell-based; conditions: for IC50: 500 μM AMG, 2 hours at 37° C.
# T2 construct: expressed in transfected cells; host or cells: CHO-K1
# T2 sequence (P31639 1-672): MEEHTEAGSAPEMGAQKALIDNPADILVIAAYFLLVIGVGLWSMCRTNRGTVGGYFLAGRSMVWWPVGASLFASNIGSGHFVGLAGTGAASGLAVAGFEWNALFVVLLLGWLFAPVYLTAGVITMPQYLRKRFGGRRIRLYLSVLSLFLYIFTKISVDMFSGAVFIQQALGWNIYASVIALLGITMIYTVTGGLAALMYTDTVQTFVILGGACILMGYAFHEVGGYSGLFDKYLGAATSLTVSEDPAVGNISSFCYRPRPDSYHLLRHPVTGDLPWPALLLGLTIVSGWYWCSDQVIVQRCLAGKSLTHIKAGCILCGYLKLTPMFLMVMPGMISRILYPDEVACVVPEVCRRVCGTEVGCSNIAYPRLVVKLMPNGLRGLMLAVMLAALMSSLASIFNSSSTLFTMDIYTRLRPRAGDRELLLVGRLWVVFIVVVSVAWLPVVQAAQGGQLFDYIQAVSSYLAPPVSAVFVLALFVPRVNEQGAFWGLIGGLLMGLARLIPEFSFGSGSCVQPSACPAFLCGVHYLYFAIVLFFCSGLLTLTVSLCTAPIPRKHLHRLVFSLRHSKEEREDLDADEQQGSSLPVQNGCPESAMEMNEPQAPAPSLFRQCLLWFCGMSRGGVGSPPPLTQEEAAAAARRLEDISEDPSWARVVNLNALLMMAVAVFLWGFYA
# Method in brief: as §1
IC50 (human SGLT1) [nM],IC50 (human SGLT2) [nM],inhibition at 0.3 µM (human SGLT1) [%],inhibition at 0.03 µM (human SGLT2) [%],Structure (SMILES)
16,3,–,–,"[2H]C1([2H])Cc2ccc(Cc3cc([C@@H]4O[C@H](CO)[C@@H](O)[C@H](O)[C@H]4O)c(F)cc3CC)cc21 [Compound 73, (2S,3R,4R,5S,6R)-2-(5-((2,2-dideuterium-1,2-dihydrocyclobutabenzen-4-yl)methyl)-4-ethyl-2-fluorophenyl)-6-(hydroxymethyl)-tetrahydro-2H-pyran-3,4,5-triol]"
12,10,–,–,"[2H]C1([2H])Cc2ccc(Cc3cc([C@@H]4O[C@H](CO)[C@@H](O)[C@H](O)[C@H]4O)c(F)cc3C3CC3)cc21 [Compound 74, (2S,3R,4R,5S,6R)-2-(4-cyclopropyl-5-((2,2-dideuterium-1,2-dihydrocyclobutabenzen-4-yl)methyl)-2-fluorophenyl)-6-(hydroxymethyl)-tetrahydro-2H-pyran-3,4,5-triol]"
64,1,–,–,"[2H]C1([2H])Cc2cc(Cc3cc([C@@H]4O[C@H](CO)[C@@H](O)[C@H](O)[C@H]4O)c(OC)cc3Cl)ccc21 [Compound 83, (2S,3R,4R,5S,6R)-2-(5-{[(7,7-dideuterium)bicyclo[4.2.0]octa-1(6),2,4-trien-3-yl]methyl}-4-chloro-2-methoxyphenyl)-6-(hydroxymethyl)oxane-3,4,5-triol]"
46,2,–,–,"[2H]C1([2H])Cc2cc(Cc3cc([C@@H]4O[C@H](CO)[C@@H](O)[C@H](O)[C@H]4O)ccc3C)ccc21 [Compound 85, (2S,3R,4R,5S,6R)-(3-((1,1-dideuterium-1,2-dihydrocyclobutabenzen-4-yl)methyl)-4-methylphenyl)-6-(hydroxymethyl)-tetrahydro-2H-pyran-3,4,5-triol]"
68,2,–,–,"[2H]C1([2H])Cc2cc(Cc3cc([C@@H]4O[C@H](CO)[C@@H](O)[C@H](O)[C@H]4O)c(OC)cc3C)ccc21 [Compound 86, (2S,3R,4R,5S,6R)-2-(5-((1,1-dideuterium-1,2-dihydrocyclobutabenzen-4-yl)methyl)-2-methoxy-4-methylphenyl)-6-(hydroxymethyl)-tetrahydro-2H-pyran-3,4,5-triol]"
18,2,–,–,"[2H]C1([2H])Cc2cc(Cc3cc([C@@H]4O[C@H](CO)[C@@H](O)[C@H](O)[C@H]4O)ccc3CC)ccc21 [Compound 87, (2S,3R,4R,5S,6R)-2-(3-((1,1-dideuterium-1,2-dihydrocyclo-butabenzen-4-yl)methyl)-4-ethylphenyl)-6-(hydroxymethyl)-tetrahydro-2H-pyran-3,4,5-triol]"
49,1,–,–,"Cc1ccc([C@@H]2O[C@H](CO)C(F)(F)[C@H](O)[C@H]2O)cc1Cc1ccc2c(c1)CC2 [Compound 91, (2S,3R,4R,6R)-2-(3-(bicyclo[4.2.0]octa-1(6),2,4-trien-3-ylmethyl)-4-methylphenyl)-5,5-difluoro-6-(hydroxymethyl)tetrahydro-2H-pyran-3,4-diol]"
14,2,–,–,"Cc1cc(O)c([C@@H]2O[C@H](CO)C(F)(F)[C@H](O)[C@H]2O)cc1Cc1ccc2c(c1)CC2 [Compound 92, (2S,3R,4R,6R)-2-(5-(bicyclo[4.2.0]octa-1(6),2,4-trien-3-ylmethyl)-2-hydroxy-4-methylphenyl)-5,5-difluoro-6-(hydroxymethyl)tetrahydro-2H-pyran-3,4-diol]"
95,3,–,–,"COc1cc(C)c(Cc2ccc3c(c2)CC3)cc1[C@@H]1O[C@H](CO)C(F)(F)[C@H](O)[C@H]1O [Compound 93, (2S,3R,4R,6R)-2-(5-(bicyclo[4.2.0]octa-1(6),2,4-trien-3-ylmethyl)-2-methoxy-4-methylphenyl)-5,5-difluoro-6-(hydroxymethyl)tetrahydro-2H-pyran-3,4-diol]"
–,–,22,70,OC[C@H]1O[C@@H](c2ccc(F)c(Cc3ccc4c(c3)CC4)c2)[C@H](O)[C@@H](O)[C@@H]1O [Compound 101]
12,2,–,–,OC[C@H]1O[C@@H](c2cc(Cc3ccc4c(c3)CC4)c(Cl)cc2O)[C@H](O)[C@@H](O)C1(F)F [Compound 102]
13,2,–,–,COc1cc(Cl)c(Cc2ccc3c(c2)CC3)cc1[C@@H]1O[C@H](CO)C(F)(F)[C@H](O)[C@H]1O [Compound 103]
14,1,–,–,CCOc1cc(Cl)c(Cc2ccc3c(c2)CC3)cc1[C@@H]1O[C@H](CO)C(F)(F)[C@H](O)[C@H]1O [Compound 104]
32,1,–,–,CCOc1cc(CC)c(Cc2ccc3c(c2)CC3)cc1[C@@H]1O[C@H](CO)[C@@H](O)[C@H](O)[C@H]1O [Compound 105]
–,–,41,26,OC[C@H]1O[C@@H](c2ccc(Cl)c(Cc3ccc4c(c3)CC4)c2)[C@H](O)[C@@H](O)C1(F)F [Compound 106]
10,1,–,–,COc1cc(O)c([C@@H]2O[C@H](CO)C(F)(F)[C@H](O)[C@H]2O)cc1Cc1ccc2c(c1)CC2 [Compound 107]

IC50 (human SGLT1) [nM],IC50 (human SGLT2) [nM],inhibition at 0.3 µM (human SGLT1) [%],inhibition at 0.03 µM (human SGLT2) [%],Structure (SMILES)
27,1,–,–,COc1cc(OC)c([C@@H]2O[C@H](CO)C(F)(F)[C@H](O)[C@H]2O)cc1Cc1ccc2c(c1)CC2 [Compound 108]
158,5,–,–,CCOc1cc(OC)c(Cc2ccc3c(c2)CC3)cc1[C@@H]1O[C@H](CO)C(F)(F)[C@H](O)[C@H]1O [Compound 109]
24,2,–,–,[2H]C([2H])([2H])Oc1cc(OC)c(Cc2ccc3c(c2)CC3)cc1[C@@H]1O[C@H](CO)[C@@H](O)[C@H](O)[C@H]1O [Compound 112]
84,1,–,–,CCOc1cc(C)c(Cc2ccc3c(c2)CC3)cc1[C@@H]1O[C@H](CO)[C@@H](O)[C@H](O)[C@H]1O [Compound 113]
37,2,–,–,CCOc1cc(OC)c(Cc2ccc3c(c2)CC3)cc1[C@@H]1O[C@H](CO)[C@@H](O)[C@H](O)[C@H]1O [Compound 114]
22,1,–,–,CCOc1cc(Cl)c(Cc2ccc3c(c2)CC3)cc1[C@@H]1O[C@H](CO)[C@@H](O)[C@H](O)[C@H]1O [Compound 115]
13,2,–,–,CCc1cc(OC2CC2)c([C@@H]2O[C@H](CO)[C@@H](O)[C@H](O)[C@H]2O)cc1Cc1ccc2c(c1)CC2 [Compound 116]
50,2,–,–,OC[C@H]1O[C@@H](c2cc(Cc3ccc4c(c3)CC4)c(Cl)cc2OC2CC2)[C@H](O)[C@@H](O)[C@@H]1O [Compound 117]
22,1,–,–,Cc1cc(OC2CC2)c([C@@H]2O[C@H](CO)[C@@H](O)[C@H](O)[C@H]2O)cc1Cc1ccc2c(c1)CC2 [Compound 118]
14,7,–,–,Cc1c(Cc2ccc3c(c2)CC3)cc([C@@H]2O[C@H](CO)[C@@H](O)[C@H](O)[C@H]2O)c(O)c1I [Compound 120]
–,–,53,55.5,CCc1cc(OC(F)F)c([C@@H]2O[C@H](CO)[C@@H](O)[C@H](O)[C@H]2O)cc1Cc1ccc2c(c1)CC2 [Compound 122]
80,1,–,–,[2H]C1([2H])c2ccc(Cc3cc([C@@H]4O[C@H](CO)[C@@H](O)[C@H](O)[C@H]4O)ccc3Cl)cc2C1([2H])[2H] [Compound 123]
52,4,–,–,Cc1ccc([C@@H]2O[C@H](CO)[C@@H](F)[C@H](O)[C@H]2O)cc1Cc1ccc2c(c1)CC2 [Compound 126]
1,2,–,–,CCc1cc(O)c([C@@H]2O[C@H](CO)[C@@H](F)[C@H](O)[C@H]2O)cc1Cc1ccc2c(c1)CC2 [Compound 127]
47,8,–,–,CCc1ccc([C@@H]2O[C@H](CO)[C@@H](F)[C@H](O)[C@H]2O)cc1Cc1ccc2c(c1)CC2 [Compound 128]
